Literature values in patent US6717017B2, “Total synthesis of antitumor acylfulvenes” (The Regents of the University of California, priority 1996, dated 2004).

Assays:
skin cancers = conditions: in vivo
[1] = tested on: MV 522 metastatic lung carcinoma xenografts; conditions: MV 522 metastatic lung carcinoma xenografts in nude mice

SMILES: CC1=C(CO)C2=C(C)C3(CC3)[C@@](C)(O)C(=O)C2=C1 [HMAF, hydroxymethylacylfulvene]
- activity against skin cancers (skin cancers): outstanding activity
- activity against breast (MX-1) cancer (breast (MX-1)): outstanding activity
- tumor regression [1]: complete tumor regression was observed in all animals
- activity against colon (HT-29) cancer (colon (HT-29)): outstanding activity
